This note sets out measurements from patent US20210395256A1, “TYROSINE KINASE INHIBITORS, COMPOSITIONS AND METHODS THERE OF” (Betta Pharmaceuticals Co., Ltd., priority 2018, published 2021).

One series addresses T1, Ba/F3-TPM3-NTRK1 (Homo sapiens, UniProt P04629).
T1 construct: expressed in transfected cells; host or cells: Ba/F3; the other entry of the earlier key: TPM3 (P06753, Tropomyosin alpha-3 chain)
The series is described as follows: Ba/F3-TPM3-NTRK1 cells proliferation assay. In kind it is cell-based. As to conditions: 72 h, CellTiter Glo. In outline:
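Ba/F3 cells stably expressing TPM3-NTRK1 or ETV6-NTRK3 fusions, 2000/well, exposed 72 h to compound at 300 to 0.05 nM final (3-fold series, 0.5% DMSO). Viability by CellTiter-Glo luminescence; IC50 by four-parameter nonlinear regression.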
(In general: In ATP-based viability assays light output follows the ATP content of the culture.)

A short description of series [1]: Plasma protein binding (equilibrium dialysis), rat. In kind it is in vitro ADME. As to conditions: pH 7.4, 6 hours dialysis; for fraction unbound at 6 h, 1 μM: read-out: Mean % Bound Rat (converted). The procedure: Example 204 Plasma Protein Binding Measurements
The plasma protein binding was measured as the following procedure.
1) Preparation of 100 mM sodium phosphate and 150 mM NaCl buffer (PBS)
A basic solution was prepared by dissolving 14.2 g/L Na2HPO4 and 8.77 g/L NaCl in deionized water and the solution could be stored at 4° C. for up to 7 days. An acidic solution was prepared by dissolving 12.0 g/L NaH2PO4 and 8.77 g/L NaCl in deionized water and the solution could be stored at 4° C. for up to 7 days. The basic solution was titrated with the acidic solution to pH 7.4 and store at 4° C. for up to 7 days. pH was checked on the day of experiment and was adjusted if outside specification of 7.4±0.1.
Frozen plasma was thawed immediately at room temperature.
The plasma was centrifuged at 3,220 g for 10 minutes to remove clots and supernatant was collected into a fresh tube. The pH of the plasma was checked and recorded.
Note: a). Only use plasma that has been thawed no more than twice since arrival. b). Only use plasma within the range of pH 7 to pH 8.
3) Preparation of working solutions
The working solutions of test compounds and control compound ketoconazole were prepared in DMSO at the concentration of 200 μM. And then 3 μL of working solution was removed to mix with 597 μL of human, rat or mouse plasma to achieve a final concentration of 1 μM (0.5% DMSO). Plasma samples were vortexed thoroughly.
4) Preparation of dialysis membranes
The dialysis membranes were soaked in ultrapure water for 60 minutes to separate strips, then in 20% ethanol for 20 minutes, finally in dialysis buffer for 20 minutes.
5) Procedure for equilibrium dialysis
The dialysis apparatus was assembled according to the manufacturer's instruction. Each cell was filled with 120 μL of plasma sample and dialyzed against equal volume of dialysis buffer (PBS). The assay was performed in duplicate. The dialysis plate was sealed and incubated in an incubator at 37° C. with 5% CO2 at 100 rpm for 6 hours. At the end of incubation, seal was removed and 50 μL of samples from both buffer and plasma chambers were transferred to wells of a 96-well plate.
6) Procedure for sample analysis
50 μL of blank plasma was added to each buffer samples and an equal volume of PBS was supplemented to the collected plasma sample. 300 μL of room temperature quench solution (acetonitrile containing internal standards (1S, 100 nM Alprazolam, 500 nM Labetalol and 2 μM Ketoprofen)) was added to precipitate protein. Samples in plate were vortexed for 5 minutes and centrifuged at 3,220 g for 30 minutes at 4° C. And then 100 μL of the supernatant was transferred to a new 96-well plate with 100 μL or 200 μL water (depends on the LC-MS signal response and peak shape) for LC-MS/MS analysis.
Calculate the percentages of test compound and control compound bound as follows:
% Free=(Peak Area Ratiobuffer chamber/Peak Area Ratioplasma chamber)*100
% Recovery=(Peak Area Ratiobuffer chamber+Peak Area Ratioplasma chamber)/Peak Area Ratio total sample*100
Peak Area Ratiobuffer chamber means the conc for free fraction
Peak Area Ratioplasma chamber means the conc for both free and bound fraction
Peak Area Ratiototal sample means the conc for starting sample before incubation

Structures are written as SMILES.

Usually IC50 stands for the concentration that inhibits the measured activity by half. Low values mean greater potency in that assay, high ones weaker potency in that assay.

T1 sequence (P04629 510-796 limits assumed): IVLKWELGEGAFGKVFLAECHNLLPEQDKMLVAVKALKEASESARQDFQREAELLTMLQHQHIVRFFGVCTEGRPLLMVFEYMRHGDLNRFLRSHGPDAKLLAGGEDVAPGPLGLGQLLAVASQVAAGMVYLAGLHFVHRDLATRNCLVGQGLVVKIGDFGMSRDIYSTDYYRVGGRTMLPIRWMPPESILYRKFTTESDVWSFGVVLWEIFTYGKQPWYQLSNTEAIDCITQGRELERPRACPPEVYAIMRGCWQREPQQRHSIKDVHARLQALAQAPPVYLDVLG

For `OC1CC(c2nnc(-c3cnn4ccc(N5CCC[C@@H]5c5cc(F)ccc5F)nc34)[nH]2)C1` (stereo partly drawn) [Compound 31, (R)-3-(5-(5-(2-(2,5-difluorophenyl)pyrrolidin-1-yl)pyrazolo[1,5-a]pyrimidin-3-yl)-4H-1,2,4-triazol-3-yl)cyclobutan-1-ol], inhibition on Ba/F3-TPM3-NTRK1 was half-maximal at 3.88 nM (IC50). Besides, in series [1], the recovery at 6 h, 1 μM stood at 98.9% and the fraction unbound at 6 h, 1 μM is 0.131.

`C[C@H](O)c1nnc(-c2cnn3ccc(N4CCC[C@@H]4c4cc(F)ccc4F)nc23)[nH]1` [Compound 4, (S)-1-(5-(5-((R)-2-(2,5-difluorophenyl)pyrrolidin-1-yl)pyrazolo[1,5-a]pyrimidin-3-yl)-4H-1,2,4-triazol-3-yl)ethan-1-ol] displayed an IC50 on Ba/F3-TPM3-NTRK1 of 3.55 nM. In series [1], the fraction unbound at 6 h, 1 μM is 0.1.

Turning to `Cc1nnc(-c2cnn3ccc(N4CCCC4c4cc(F)ccc4F)nc23)[nH]1` (centres unmarked) [Comparative compound A, 5-[2-(2,5-Difluorophenyl)pyrrolidin-1-yl]-3-(5-methyl-1H-1,2,4-triazol-3-yl)pyrazolo[1,5-a]pyrimidine, reference compound], in series [1], the recovery at 6 h, 1 μM came out at 93.8% and the fraction unbound at 6 h, 1 μM is 0.0729.

At Ba/F3-TPM3-NTRK1, `CC(C)(O)c1nnc(-c2cnn3ccc(N4CCC[C@@H]4c4cc(F)ccc4F)nc23)[nH]1` [Compound 7, (R)-2-(5-(5-(2-(2,5-difluorophenyl)pyrrolidin-1-yl)pyrazolo[1,5-a]pyrimidin-3-yl)-4H-1,2,4-triazol-3-yl)propan-2-ol] registered an IC50 of 8.17 nM. The molecule also gave a recovery at 6 h, 1 μM in series [1] of 90.8%.

For `C[C@@H](CO)c1nnc(-c2cnn3ccc(N4CCC[C@@H]4c4cc(F)ccc4F)nc23)[nH]1` [Compound 39, (R)-2-(5-(5-((R)-2-(2,5-difluorophenyl)pyrrolidin-1-yl)pyrazolo[1,5-a]pyrimidin-3-yl)-4H-1,2,4-triazol-3-yl)propan-1-ol], at Ba/F3-TPM3-NTRK1, half-maximal inhibition (IC50) required 7.42 nM. In series [1], the recovery at 6 h, 1 μM amounted to 89.7% and the fraction unbound at 6 h, 1 μM is 0.116.

In turn, `OC1(c2nnc(-c3cnn4ccc(N5CCC[C@@H]5c5cc(F)ccc5F)nc34)[nH]2)CCC1` [Compound 23, (R)-1-(5-(5-(2-(2,5-difluorophenyl)pyrrolidin-1-yl)pyrazolo[1,5-a]pyrimidin-3-yl)-4H-1,2,4-triazol-3-yl)cyclobutan-1-ol] showed an IC50 against Ba/F3-TPM3-NTRK1 of 20.9 nM. In addition, the fraction unbound at 6 h, 1 μM in series [1] was 0.0699.

At Ba/F3-TPM3-NTRK1, `CC(C)(O)Cc1nnc(-c2cnn3ccc(N4CCC[C@@H]4c4cc(F)ccc4F)nc23)[nH]1` [Compound 30, (R)-1-(5-(5-(2-(2,5-difluorophenyl)pyrrolidin-1-yl)pyrazolo[1,5-a]pyrimidin-3-yl)-4H-1,2,4-triazol-3-yl)-2-methylpropan-2-ol] came in with an IC50 of 13.8 nM. Besides, in series [1], the recovery at 6 h, 1 μM turned out to be 92.5% and the fraction unbound at 6 h, 1 μM is 0.174.

`C[C@H](N)c1nnc(-c2cnn3ccc(N4CCC[C@@H]4c4cc(F)ccc4F)nc23)[nH]1` [Compound 11, (S)-1-(5-(5-((R)-2-(2,5-difluorophenyl)pyrrolidin-1-yl)pyrazolo[1,5-a]pyrimidin-3-yl)-4H-1,2,4-triazol-3-yl)ethan-1-amine] had an IC50 at Ba/F3-TPM3-NTRK1 of 13.6 nM. Moreover, in series [1], the recovery at 6 h, 1 μM turned out to be 87.5% and the fraction unbound at 6 h, 1 μM is 0.289.
